The results in this text go back to patent US20240316051A1, “A PHARMACEUTICAL COMBINATION AND USE THEREOF” (Ascentage Pharma (Suzhou) Co., Ltd., priority 2021, published 2024).

Structures are written as SMILES.

Experiment [1] relates to BAP1 mut mesothelioma PDX model. The experiment in a line: Subcutaneous BAP1 mut mesothelioma PDX model (Example 21). Format: in vivo, mice. The following applies: Compound 73 100 mg/kg orally once per day, Compound C 50 mg/kg orally every other day, 36 days; alone or combined. The method, then:
(§1) A subcutaneous xenograft tumor model of human tumor immunodeficient mice was established by cell inoculation: tumor cells in logarithmic growth phase were collected, counted, resuspended in 1×PBS, and the cell suspension concentration was adjusted to 2.5-5×10^7/mL. The tumor cells were inoculated subcutaneously in the right side of immunodeficient mice with a 1 ml syringe ([…]), 5-10×10^6/0.2 mL/mouse. All animal experiments were strictly in accordance with the specifications for the use and management of experimental animals in GenePharma Co., Ltd. and Suzhou Ascentage Pharma Co., Ltd. The calculation of relevant parameters refers to the Chinese NMPA “Guidelines for Non-Clinical Research Techniques of Cytotoxic Anti-tumor Drugs”.
Animal body weight and tumor size were measured twice weekly during the experiment. The state of the animal and the presence or absence of death were observed every day. The growth of tumor and the effects of treatment on normal behavior of animals were monitored routinely, specifically involving experimental animal activity, feeding and drinking, weight gain or loss, eyes, clothing hair and other abnormalities. The deaths and clinical symptoms observed during the experiment were recorded in the raw data. All operations for administration and measurement of mouse body weight and tumor volume were performed in a clean bench. According to the requirements of the experimental protocol, after the end of the last administration, plasma and tumor tissues were collected, weighed and photographed. The plasma and tumor samples were frozen at −80° C. for ready-to-use.
(§2) Tumor volume (TV) is calculated as: TV=a×b^2/2, wherein a and b represent the length and width of the tumor to be measured, respectively.
The relative tumor volume (RTV) is calculated as: RTV=Vt/V1, wherein V1 is the tumor volume at the start of grouping and administration, and Vt is the tumor volume measured on the t day after administration.
The evaluation index of anti-tumor activity is the relative tumor proliferation rate T/C (%), and the calculation formula thereof is: relative tumor proliferation rate T/C (%)=(TRTV/CRTV)×100%, TRTV is the RTV of treatment group, CRTV is the RTV of solvent control group.
Change of body weight (%)=(measured body weight-body weight at the start of grouping)/body weight at the start of grouping×100%.
A dose of drug is considered to be severely toxic if the body weight of mouse is reduced by more than 20% or the number of drug-related deaths exceeds 20%.
In this experiment, subcutaneous BAP1 mut mesothelioma PDX model was established (Lide Biotech) to evaluate the anti-tumor effect of Compound 73 in combination with Compound C. […]

Experiment [2] has as its system NCI-H226 (BAP1mut, CDKN2Adel, FGFR high) xenograft. The experiment in a line: NCI-H226 xenograft model (Examples 18-19). The experiment is classed as in vivo, mice. The following applies: Compound 73 50 mg/kg, orally, once per day, 35 days. As for the experimental part: as §1
Animal body weight and tumor size were measured twice weekly during the experiment. The state of the animal and the presence or absence of death were observed every day. The growth of tumor and the effects of treatment on normal behavior of animals were monitored routinely, specifically involving experimental animal activity, feeding and drinking, weight gain or loss, eyes, clothing hair and other abnormalities. The deaths and clinical symptoms observed during the experiment were recorded in the raw data. […] The plasma and tumor samples were frozen at −80° C. for ready-to-use.
as §2
The relative tumor volume (RTV) is calculated as: RTV=Vt/V1, wherein V1 is the tumor volume at the start of grouping and administration, and Vt is the tumor volume measured on the t day after administration. […]
Use of mRECIST (Gao et al., 2015) measured tumor responses included stable disease (SD), partial tumor regression (PR), and complete regression (CR), determined by comparing tumor volume change at day t to its baseline: tumor volume change (%)=(Vt−V1)/V1. […] For each time t, the average of tumor volume changes from t=1 to t was also calculated. […] Body weight of animals were monitored simultaneously. […]

Experiment [3] has as its target T1, EED (1-441)-His protein (Homo sapiens, UniProt O75530).
T1 construct: 20 nM EED (1-441)-His protein
The experiment in a line: EED-H3K27Me3 peptide competition binding assay by AlphaScreen. The following applies: Table 4A, read-out: Alpha screen. In a few lines: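 Readout was AlphaScreen emission at 615 nm after 680 nm excitation, with 10 μg/ml final each of streptavidin donor and nickel chelate acceptor beads, 1 h at RT in the dark. Beforehand, compound met the His-tagged EED(1-441) for 15 min and then biotinylated H3K27Me3(19-33) peptide for 30 min; both were added as 20 nM solutions, buffer 25 mM HEPES pH 8, Tween-20, BSA. Percent activity left was fitted to give IC50.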
In general terms: Bead proximity is the source of the signal in Alpha formats.

T1 sequence (O75530 whole entry): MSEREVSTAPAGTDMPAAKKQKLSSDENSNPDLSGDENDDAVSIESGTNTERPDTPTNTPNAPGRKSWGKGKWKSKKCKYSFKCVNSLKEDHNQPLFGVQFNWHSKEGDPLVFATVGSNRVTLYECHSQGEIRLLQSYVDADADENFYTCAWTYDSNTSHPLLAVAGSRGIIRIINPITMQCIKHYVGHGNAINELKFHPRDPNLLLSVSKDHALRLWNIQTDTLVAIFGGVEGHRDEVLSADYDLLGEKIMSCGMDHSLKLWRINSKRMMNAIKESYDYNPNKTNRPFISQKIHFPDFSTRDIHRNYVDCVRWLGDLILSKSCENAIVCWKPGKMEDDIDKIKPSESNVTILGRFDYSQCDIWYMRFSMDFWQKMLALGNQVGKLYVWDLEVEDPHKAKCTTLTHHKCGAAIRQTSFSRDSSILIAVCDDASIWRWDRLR

For `CC(C)N1Cc2cc(C(F)(F)F)ncc2-c2cnc(NCc3c(F)ccc4c3CCO4)n3cnc(c23)C1=O` [Compound 73, 12-(((5-fluoro-2,3-dihydrobenzofuran-4-yl)methyl)amino)-4-isopropyl-7-(trifluoromethyl)-4,5-dihydro-3H-2,4,8,11,12a-pentaazabenzo[4,5]cycloocta[1,2,3-cd]inden-3-one], in experiment [1], the “RTV @ D 36” value is 5.43 and the “T/C (%) @ D 36” value is listed as 37.22%. Further, in experiment [2], the “T/C (%)” value is 48.6% and the “tumor response (mRECIST)” value is recorded as “all the mice achieving stable disease (SD)”. Also, the IC50 in experiment [3] is 0.5 nM.
